A short description of one series: in vivo. Details: species or system Sprague-Dawley rats. The conditions noted are these: rat, iv. The method, then: Sprague-Dawley rats were randomly divided into three groups and each group contains 6 rats. The prepared micelles solution was injected through femoral vein and the dose was 20 mg/kg (sorafenib) and 30 mg/kg (TG100-115). Free sorafenib and TG100-115 solutions were used as reference and the dose is same as the micelles group. After the end of administration, appropriate blood was obtained from the retro-orbital sinus at preselected time intervals (5, 10, 15, 30, 60 min, 2, 4, 6, 8, 12, 24, 48 and 72 h). Then, the blood was centrifuged at 3500 rpm for 10 min to acquire final plasma.
The plasma concentration of sorafenib and TG100-115 was measured using a validated HPLC-MS/MS method. The specific conditions are as follows: poroshell 120 poroshell-C18 column (50 mm × 4.6 mm, 2.7 μm, Agilent) was chosen as an analytical column, and the column temperature was 40 °C. The mobile phase comprised acetonitrile and 10 mmol/L ammonium acetate containing 0.1% formic acid, and the flow rate was 0.7 mL/min. Imatinib and naproxen were chosen as internal standard (IS) to improve the accuracy of the measurement. The ion ionization of sorafenib and imatinib was positive ion ionization, while TG100-115 and naproxen were negative ion ionization. The specific MS parameters of analytes were shown in S1 (Supplemental 1).
Plasma samples are processed according to the standard operating practices described below. Briefly, add 150.0 μL of plasma sample and 20.0 μL of the IS solution in a 2.0 mL EP tube. Then, the solution was vortexed for 1.0 min and added 300 μL of ice acetonitrile to precipitate protein. After vortexing for 1.0 min, the solution was centrifuged at 15000 rpm for 10 min. After that, 150 μL of supernatant was collected for quantitative analysis.

Series [1] has as its system Hep-3B-xenografted nude mouse model. In words: In vivo anti-tumor activity and safety in Hep-3B-xenografted nude mouse model. The conditions noted are these: Hep-3B nude mouse, TG100-115 30 mg/kg and/or sorafenib 20 mg/kg; for IRT (tumor inhibition rate): versus normal saline. The protocol:
The in vivo anti-tumor activity and safety of the prepared micelles was investigated by using Hep-3B-xenografted nude mouse model. The mice were randomly divided into six groups (n = 6) when the tumor volumes reached around 150 mm^3. The tumor-bearing mice were treated with non-targeted micelles solution, targeted micelle solution, TG100-115 solution, sorafenib solution, mixed sorafenib/TG100-115 solution and normal saline. […] The mice were sacrificed on day 28. Thereafter, the tumors were totally excised and precisely weighed. The tumor inhibitory rates were calculated using the formula: Tumor inhibition rate (%) = (Vblank −Vsample)/Vblank × 100%, Vblank, and Vsample represent the tumor volumes in the blank and test, reference group respectively.

On the set-up of series [2]: method as in Hsu et al., 2018; Wang et al., 2018. Particulars: checkpoint inhibitor alone only 20%, ref Hsu et al., 2018, Wang et al.; cited from earlier work.
[3] abbreviates: twice a week for 4 weeks, day 28.

Each structure is given as a SMILES string.

In the case of `CNC(=O)c1cc(Oc2ccc(NC(=O)Nc3ccc(Cl)c(C(F)(F)F)c3)cc2)ccn1` [Sorafenib], in the series “in vivo” (Sprague-Dawley, 20 mg/kg), the total exposure AUC(0-inf) was 78.6 ± 20.6 ng·h/mL, the AUC(0-t) was determined as 74.5 ± 18.7 ng·h/mL, the Cmax stood at 17.3 ± 3.2 ng/mL and the time of peak concentration (Tmax) is 0.167 ± 0.073 h. In “in vivo” (Sprague-Dawley, 20 mg/kg), this molecule showed a clearance of 423 mL/min/kg and a half-life of 8.8 ± 1.4 h. In addition, in series [1] (setting [3]), the “Body weight Final” value was found to be 34.2 g, the Tumor weight stood at 2.48 ± 0.36 g and the “IRT (tumor inhibition rate)” value is listed as 46.09%. Also, the “Body weight Initial” value in series [1] (before treatment) came out at 23.6 g.
Consider `Nc1nc(N)c2nc(-c3cccc(O)c3)c(-c3cccc(O)c3)nc2n1` [TG100-115], for which the “CLz of TG100-115” value in “in vivo” (30 mg/kg) turned out to be 545 ± 91.7 mL/min/kg. Besides, in series [1] (setting [3]), the Tumor weight worked out at 2.72 ± 0.31 g and the “IRT (tumor inhibition rate)” value was determined as 40.87%. The “efficiency of checkpoint inhibitor in the treatment of immune-tolerant mice when combined with TG100-115” value in series [2] is recorded as 80%.

Usually AUC(0-inf) stands for total exposure, with the tail of the curve extrapolated. For orientation: AUC(0-t) means exposure summed from dosing to a finite time, without extrapolation to infinity. Usually Cmax stands for the maximum level reached in the sampled fluid or tissue. In general, Tmax refers to the time at which the peak concentration occurs. By clearance is commonly meant the rate of elimination divided by the concentration. Low readings indicate a low capacity for elimination, high ones a high capacity for elimination. One may read the half-life as the time in which the quantity being followed falls by half. A higher half-life goes with slow decline.

Source of the values: article PMC6711177, “Sorafenib-loaded hydroxyethyl starch-TG100-115 micelles for the treatment of liver cancer based on synergistic treatment” (Drug Delivery, 2019).
